This note sets out measurements from patent US8354436B2 (4SC Discovery GmbH, priority 2011, dated 2013).

Holding throughout (type): cell-based
Holding throughout (settings): 48 hours

Test [1] concerns IL-17FF. Description: IL-17FF production by PHA-stimulated human PBMC (human IL-17F ELI-Pair). As for the experimental part:
Analysis of Proliferation of and Cytokine Production by Human PBMC Stimulated with PHA
Peripheral blood mononuclear cells (PBMC) from healthy human donors were purified using Accuspin™ System-Histopaque-1077 (Sigma) according to the protocol recommended by the manufacturer. Purified PBMC were then washed twice with phosphate-buffered saline (PBS) and resuspended in RPMI1640 culture medium supplemented with 10% dialyzed heat inactivated fetal calf serum, 1.5 mM L-glutamine, 100 U penicillin/ml, and […] (all from PAN Biotech, Aidenbach, Germany). For stimulation, PBMC were seeded at 1×10^5 cells/well, activated with 2 μg/ml phytohaemagglutinin (PHA, Sigma) and incubated with the test compounds for 48 hours. IL-17A, IL-17F and INF-γ were then determined in the culture supernatant using a Luminex BioPlex system, following the manufacturer's instructions (BioRad, Munich, Germany). For screening, compounds were used at 10, 1, 0.1 and 0.01 μM. To determine the IC50, compounds were titrated semilogarithmically.
Cytokines were determined in the aforementioned culture supernatant using the following methods: IL-17AA/AF was measured using the Luminex BioPlex system (BioRad, Munich, Germany); IL-17AA using the human homodimer IL-17A ELISA Ready Set Go Kit from eBioscience (Frankfurt, Germany); IL-17FF using the human IL-17F ELI-Pair from Hölzel DiagnosticaGmBH (Köln, Germany); and IFN-γ using the OptEIA human IFN-g ELISA from BD Bioscience (Heidelberg, Germany), all following the manufacturer's instructions.

The test system of test [2] is IFN-γ. Description: IFN-γ production by PHA-stimulated human PBMC (OptEIA human IFN-g ELISA). In outline:
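Healthy-donor PBMC (1×10^5 cells/well) were activated with 2 μg/ml PHA and cultured with test compounds for 48 hours; cytokines were then quantified in supernatants by the respective immunoassay. Screening used 10, 1, 0.1 and 0.01 μM; IC50 came from semilogarithmic compound titration.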
On the technique in general: ELISA stands for enzyme-linked immunosorbent assay.

The test system of test [3] is PBMC from healthy human donors. The test is described as follows: T cell proliferation assay (PHA-stimulated human PBMC, BrdU ELISA). In short, it runs like this: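 Healthy-donor PBMC isolated on Ficoll, seeded at 1×10⁵ cells/well in RPMI with 10% dialysed FCS, stimulated with 2 μg/ml PHA in presence of test compound. Proliferation read after 48 hours by BrdU-incorporation ELISA.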
In general terms: Dividing cells build labelled thymidine or BrdU into new DNA.

The mark [4] stands for this setting: human PBMC, 2 μg/ml PHA, read-out: B: IC50 (IL-17FF).
[5] abbreviates: human PBMC, 2 μg/ml PHA, read-out: C: IC50 (IFNγ).
Where [6] appears, read: human PBMC, 2 μg/ml PHA, read-out: D: IC50 (Tcell proliferation).
Setting [7] is: PHA-stimulated human PBMC, column B, read-out: IC50 (IL-17FF).
Setting [8] is: PHA-stimulated human PBMC, column D, read-out: IC50 (Tcell proliferation).
The mark [9] stands for this setting: PHA-stimulated human PBMC, column C, read-out: IC50 (IFNγ).

Like-named read-outs stand apart in the source and are kept apart here. Some results are limits rather than exact numbers.

In the case of `Fc1cccc(-n2ncc(-c3onc(-c4c(F)cccc4Cl)c3-c3nnn[nH]3)c2C(F)(F)F)c1` [Example 2, 3-(2-chloro-6-fluorophenyl)-5-(1-(3-fluorophenyl)-5-(trifluoromethyl)-1H-pyrazol-4-yl)-4-(1H-tetrazol-5-yl)isoxazole], the IC50 in test [1] (setting [4]), in test [2] (setting [5]) and in test [3] (setting [6]) was 1 to 10 µM each time.

With `Fc1cccc(Cl)c1-c1noc(-c2cnn(-c3cccc(Cl)c3)c2C(F)(F)F)c1-c1nnn[nH]1` [Example 3, 3-(2-chloro-6-fluorophenyl)-5-(1-(3-chlorophenyl)-5-(trifluoromethyl)-1H-pyrazol-4-yl)-4-(1H-tetrazol-5-yl)isoxazole], the IC50 in test [1] (setting [4]), in test [2] (setting [5]) and in test [3] (setting [6]) was 1 to 10 µM each time.

Regarding `Cc1csc(-c2c(-c3c(F)cccc3Cl)noc2-c2cnn(-c3cccc(Cl)c3)c2C(F)(F)F)n1` [Example 4], the IC50 in test [1] (setting [4]), in test [2] (setting [5]) and in test [3] (setting [6]) was below 0.01 µM in each case.

With `Fc1cccc(-n2ncc(-c3onc(-c4c(F)cccc4Cl)c3-c3nnc(C(F)(F)F)o3)c2C(F)(F)F)c1` [Example 6, 2-(3-(2-chloro-6-fluorophenyl)-5-(1-(3-fluorophenyl)-5-(trifluoromethyl)-1H-pyrazol-4-yl)isoxazol-4-yl)-5-(trifluoromethyl)-1,3,4-oxadiazole], the IC50 in test [1] (setting [4]), in test [2] (setting [5]) and in test [3] (setting [6]) was 0.01 to 0.1 µM in each case.

Take `Fc1cccc(-n2ncc(-c3onc(-c4c(F)cccc4Cl)c3-c3nnco3)c2C(F)(F)F)c1` [Example 7]: the IC50 in test [1] (setting [4]) is below 0.01 µM; in test [2] (setting [5]), below 0.01 µM; in test [3] (setting [6]) it was 0.01 to 0.1 µM.

Take `Fc1cccc(Cl)c1-c1noc(-c2cnn(-c3cccc(Cl)c3)c2C(F)(F)F)c1-c1cnco1` [Example 8, 3-(2-chloro-6-fluorophenyl)-5-(1-(3-chlorophenyl)-5-(trifluoromethyl)-1H-pyrazol-4-yl)-4-(oxazol-5-yl)isoxazole]: the IC50 in test [1] (setting [4]), in test [2] (setting [5]) and in test [3] (setting [6]) was below 0.01 µM throughout.

In the case of `Oc1csc(-c2c(-c3c(F)cccc3Cl)noc2-c2cnn(-c3cccc(F)c3)c2C(F)(F)F)n1` [Example 9, 2-(3-(2-chloro-6-fluorophenyl)-5-(1-(3-fluorophenyl)-5-(trifluoromethyl)-1H-pyrazol-4-yl)isoxazol-4-yl)thiazol-4-ol], the IC50 in test [1] (setting [4]), in test [2] (setting [5]) and in test [3] (setting [6]) was 0.1 to 1 µM in each case.

For the compound `CCOC(=O)c1c(-c2onc(-c3c(F)cccc3Cl)c2C(=O)OC)cnn1-c1cccc(Cl)c1Cl` [Example I-9, methyl 3-(2-chloro-6-fluorophenyl)-5-(1-(2,3-dichlorophenyl)-5-(ethoxycarbonyl)-1H-pyrazol-4-yl)isoxazole-4-carboxylate], the IC50 in test [1] (setting [7]) and in test [3] (setting [8]) was 1 to 10 µM throughout.

`CCOC(=O)c1c(-c2ccc(Cl)cc2)noc1-c1cnn(-c2cccc(Cl)c2)c1C(F)(F)F` [Example I-77, ethyl 3-(4-chlorophenyl)-5-(1-(3-chlorophenyl)-5-(trifluoromethyl)-1H-pyrazol-4-yl)isoxazole-4-carboxylate]: the IC50 in test [1] (setting [7]) and in test [3] (setting [8]) was 1 to 10 µM each time.

`CCOC(=O)c1c(-c2ccc(OC)cc2)noc1-c1cnn(-c2cccc(F)c2)c1C(F)(F)F` [Example I-100, ethyl 5-(1-(3-fluorophenyl)-5-(trifluoromethyl)-1H-pyrazol-4-yl)-3-(4-methoxyphenyl)isoxazole-4-carboxylate]: the IC50 in test [1] (setting [7]) and in test [2] (setting [9]) was 1 to 10 µM each time.

In the case of `CNC(=O)c1c(-c2cccc(F)c2)noc1-c1cnn(-c2cccc(F)c2)c1C(F)(F)F` [Example I-105, 3-(3-fluorophenyl)-5-(1-(3-fluorophenyl)-5-(trifluoromethyl)-1H-pyrazol-4-yl)-N-methylisoxazole-4-carboxamide], the IC50 in test [1] (setting [7]) and in test [2] (setting [9]) was 1 to 10 µM throughout.

With `CNC(=O)c1c(-c2ccccc2)noc1-c1cnn(-c2cc(F)cc(F)c2)c1C(F)(F)F` [Example I-113, 5-(1-(3,5-difluorophenyl)-5-(trifluoromethyl)-1H-pyrazol-4-yl)-N-methyl-3-phenylisoxazole-4-carboxamide], the IC50 in test [1] (setting [7]) and in test [2] (setting [9]) was 1 to 10 µM throughout.

For `Fc1cc(F)c(F)c(-n2ncc(-c3onc(-c4c(F)cccc4Cl)c3Br)c2C(F)(F)F)c1F` [Example I-144, 4-bromo-3-(2-chloro-6-fluorophenyl)-5-(1-(2,3,5,6-tetrafluorophenyl)-5-(trifluoromethyl)-1H-pyrazol-4-yl)isoxazole], the IC50 in test [1] (setting [7]) and in test [2] (setting [9]) was 1 to 10 µM in each case.

Take `O=CNc1c(-c2c(F)cccc2Cl)noc1-c1cnn(-c2cccc(Cl)c2)c1C(F)(F)F` [IB-48, N-(3-(2-chloro-6-fluorophenyl)-5-(1-(3-chlorophenyl)-5-(trifluoromethyl)-1H-pyrazol-4-yl)isoxazol-4-yl)formamide]: the IC50 in test [1] (setting [7]) and in test [3] (setting [8]) was 1 to 10 µM in each case.

In the case of `CNC(=O)c1c(-c2c(F)cccc2Cl)noc1-c1cnn(-c2ccncc2)c1C(F)(F)F` [IB-58, 3-(2-chloro-6-fluorophenyl)-N-methyl-5-(1-(pyridin-4-yl)-5-(trifluoromethyl)-1H-pyrazol-4-yl)isoxazole-4-carboxamide], the IC50 in test [1] (setting [7]) and in test [2] (setting [9]) was 1 to 10 µM in each case.

`NS(=O)(=O)c1cccc(-n2ncc(-c3onc(-c4c(F)cccc4Cl)c3C(=O)N3CCCO3)c2C(F)(F)F)c1` [IB-65, 3-(4-(3-(2-chloro-6-fluorophenyl)-4-(isoxazolidine-2-carbonyl)isoxazol-5-yl)-5-(trifluoromethyl)-1H-pyrazol-1-yl)benzenesulfonamide]: the IC50 in test [1] (setting [7]) and in test [2] (setting [9]) was 1 to 10 µM each time.

For `CON(C)C(=O)c1c(-c2c(F)cccc2Cl)noc1-c1cnn(-c2cccc(S(N)(=O)=O)c2)c1C(F)(F)F` [IB-66, 3-(2-chloro-6-fluorophenyl)-N-methoxy-N-methyl-5-(1-(3-sulfamoylphenyl)-5-(trifluoromethyl)-1H-pyrazol-4-yl)isoxazole-4-carboxamide], the IC50 in test [1] (setting [7]) and in test [2] (setting [9]) was 1 to 10 µM throughout.

Consider `CCOC(=O)c1c(-c2c(F)cccc2Cl)noc1-c1cnn(Cc2ccncc2)c1C(F)(F)F` [IB-85, ethyl 3-(2-chloro-6-fluorophenyl)-5-(1-(pyridin-4-ylmethyl)-5-(trifluoromethyl)-1H-pyrazol-4-yl)isoxazole-4-carboxylate], for which the IC50 in test [1] (setting [7]) and in test [2] (setting [9]) was 1 to 10 µM each time.

On to `CON(C)C(=O)c1c(-c2c(F)cccc2Cl)noc1-c1cnn(-c2cccc(NC(C)=O)c2)c1C(F)(F)F` [IB-87, 5-(1-(3-acetamidophenyl)-5-(trifluoromethyl)-1H-pyrazol-4-yl)-3-(2-chloro-6-fluorophenyl)-N-methoxy-N-methylisoxazole-4-carboxamide], for which the IC50 in test [1] (setting [7]) and in test [2] (setting [9]) was 1 to 10 µM each time.

For `CC(=O)Nc1cccc(-n2ncc(-c3onc(-c4c(F)cccc4Cl)c3C(=O)N3CCCO3)c2C(F)(F)F)c1` [IB-88, N-(3-(4-(3-(2-chloro-6-fluorophenyl)-4-(isoxazolidine-2-carbonyl)isoxazol-5-yl)-5-(trifluoromethyl)-1H-pyrazol-1-yl)phenyl)acetamide], the IC50 in test [1] (setting [7]) and in test [2] (setting [9]) was 1 to 10 µM in each case.

Regarding `CCOC(=O)c1c(-c2c(Cl)cncc2Cl)noc1-c1cnn(-c2cccc(F)c2)c1C(F)(F)F` [IB-103, ethyl 3-(3,5-dichloropyridin-4-yl)-5-(1-(3-fluorophenyl)-5-(trifluoromethyl)-1H-pyrazol-4-yl)isoxazole-4-carboxylate], the IC50 in test [1] (setting [7]) and in test [2] (setting [9]) was 1 to 10 µM in each case.

On to `CCOC(=O)c1c(-c2c(F)cccc2Cl)noc1-c1cnn(Cc2ccccn2)c1C(F)(F)F` [IB-104, ethyl 3-(2-chloro-6-fluorophenyl)-5-(1-(pyridin-2-ylmethyl)-5-(trifluoromethyl)-1H-pyrazol-4-yl)isoxazole-4-carboxylate], for which the IC50 in test [1] (setting [7]) and in test [2] (setting [9]) was 1 to 10 µM each time.
